# In patent US20020031795A1, “Nitrocoumarins for detecting all micro-organisms” (priority 1998, published 2002):
# Entries after “also recorded” stand apart in the source; their conditions may differ.
# Key:
# Format in all cases: cell-based
# [1] = test system: Escherichia coli (NCTC 10418); experiment: Growth of E. coli in Mueller-Hinton broth in the presence of nitrocoumarins (optical density 690 nm)
# Description: A sample of the 7-nitrocoumarin derivative is dissolved in 4 ml of hot, distilled water. The mass dissolved to make the stock solution is such that the final concentration of the compound in the assay is 0.105 mmol/l. This solution is added to 96 ml of Mueller-Hinton broth and the mixture is sterile-filtered.
# The E. coli was grown for 24 hours at 35° C. on Columbia agar supplemented with sheep blood. The bacteria were then resuspended in sterile, distilled water and their density was adjusted to 0.5 on the MacFarland scale (i.e. about 10^8 cells/ml). This suspension was then diluted 100-fold in sterile Mueller-Hinton broth (i.e. to a final density of about 10^6 cells/ml).
# Fifty microliters of each nitrocoumarin solution plus 50 μl of bacterial suspension were then added to the wells of a microtiter plate. The plates were incubated at 35° C. and the optical density and fluorescence of each well was read every 30 min for a total of 4 hours. Optical density (690 nm) readings were made using an Anthos 2001 spectrophotometer (Labtech International Limited), and fluorescence (excitation at 365 nm and emission at 440 nm) readings were made on a Biolite F1 2001 fluorometer (Labtech International Limited).
# The effect of the concentration of 7-nitrocoumarin-3-carboxylic acid on the sensitivity of the assay to detect E. coli (NCTC strain 10418) was investigated at concentrations of the indicator ranging from 0 to 0.262 mmol/l. All other conditions were identical to those described in section A above.
# [2] = test system: Acinetobacter haemolyticus (ATCC 17906); experiment: Fluorescence after 24 hours, serial dilutions in Trypticase Soy broth
# Description: (§1) This experiment was performed to test 7-nitrocoumarin-3-carboxylic acid on sixteen (16) different types of microorganism, including one yeast species.
# (§2) A mass of 10 mg of the indicator was dissolved in 4 ml of hot, distilled water and this solution was then added to 96 ml of Trypticase Soy broth. The resultant mixture was sterile-filtered.
# (§3) All the microorganisms were grown for 24 hours in Trypticase Soy broth at 35° C. Each culture was then diluted 1,000-fold in Trypticase Soy broth and then serial 10-fold dilutions were made in more Trypticase Soy broth until the test aliquot contained no more microbial cells.
# (§4) The resultant dilutions ranged from 10^−3 to 10^−13.
# (§5) Fifty microliters of each dilution plus 50 μl of Trypticase Soy broth were added to wells of a microtiter plate with or without 7-nitrocoumarin-3-carboxylic acid.
# (§6) The plates were read (T zero) and then incubated at 35° C. before being read again after 24 hours. Two different readings were made at each time point:
# (§7) of the fluorescence (excitation at 365 nm and emission at 440 nm), using a Biolite F1 2001 fluorometer (Labtech International Limited), for wells containing 7-nitrocoumarin-3-carboxylic acid.
# [3] = test system: Shigella sonnei (NCTC 8586); experiment: as above
# Description: as §1, §2, §3, §4, §5, §6, §7
# [4] = test system: sixteen different microorganisms; experiment: Growth indicator test on sixteen different microorganisms (summary)
# Description: as §1, §2, §3, §4, §5
# The plates were read (T zero) and then incubated at 35° C. before being read again after 24 hours. Two different readings were made at each time point: […]
# as §7
# In order to check the correlation between growth and the fluorescence results, the contents of each well were seeded on Columbia agar supplemented with sheep blood.
smiles,measurement,setting,value
O=C(O)c1cc2ccc([N+](=O)[O-])cc2oc1=O [7-nitrocoumarin-3-carboxylic acid],Optical density (690 nm),"[1]; 0.005 mmol/l, 0 min",0.000
same,Optical density (690 nm),"[1]; 0.005 mmol/l, 30 min",0.000
same,Optical density (690 nm),"[1]; 0.005 mmol/l, 60 min",0.003
same,Optical density (690 nm),"[1]; 0.005 mmol/l, 90 min",0.011
same,Optical density (690 nm),"[1]; 0.005 mmol/l, 120 min",0.034
same,Optical density (690 nm),"[1]; 0.005 mmol/l, 150 min",0.090
same,Optical density (690 nm),"[1]; 0.005 mmol/l, 180 min",0.155
same,Optical density (690 nm),"[1]; 0.005 mmol/l, 210 min",0.246
same,Optical density (690 nm),"[1]; 0.005 mmol/l, 240 min",0.411
same,Optical density (690 nm),"[1]; 0.013 mmol/l, 0 min",0.000
same,Optical density (690 nm),"[1]; 0.013 mmol/l, 30 min",0.000
same,Optical density (690 nm),"[1]; 0.013 mmol/l, 60 min",0.003
same,Optical density (690 nm),"[1]; 0.013 mmol/l, 90 min",0.011
same,Optical density (690 nm),"[1]; 0.013 mmol/l, 120 min",0.032
same,Optical density (690 nm),"[1]; 0.013 mmol/l, 150 min",0.088
same,Optical density (690 nm),"[1]; 0.013 mmol/l, 180 min",0.149
same,Optical density (690 nm),"[1]; 0.013 mmol/l, 210 min",0.233
same,Optical density (690 nm),"[1]; 0.013 mmol/l, 240 min",0.371
same,Optical density (690 nm),"[1]; 0.026 mmol/l, 0 min",0.000
same,Optical density (690 nm),"[1]; 0.026 mmol/l, 30 min",0.001
same,Optical density (690 nm),"[1]; 0.026 mmol/l, 60 min",0.004
same,Optical density (690 nm),"[1]; 0.026 mmol/l, 90 min",0.011
same,Optical density (690 nm),"[1]; 0.026 mmol/l, 120 min",0.032
same,Optical density (690 nm),"[1]; 0.026 mmol/l, 150 min",0.079
same,Optical density (690 nm),"[1]; 0.026 mmol/l, 180 min",0.201
same,Optical density (690 nm),"[1]; 0.026 mmol/l, 210 min",0.290
same,Optical density (690 nm),"[1]; 0.026 mmol/l, 240 min",0.436
same,Optical density (690 nm),"[1]; 0.052 mmol/l, 0 min",0.000
same,Optical density (690 nm),"[1]; 0.052 mmol/l, 30 min",0.001
same,Optical density (690 nm),"[1]; 0.052 mmol/l, 60 min",0.003
same,Optical density (690 nm),"[1]; 0.052 mmol/l, 90 min",0.011
same,Optical density (690 nm),"[1]; 0.052 mmol/l, 120 min",0.031
same,Optical density (690 nm),"[1]; 0.052 mmol/l, 150 min",0.082
same,Optical density (690 nm),"[1]; 0.052 mmol/l, 180 min",0.153
same,Optical density (690 nm),"[1]; 0.052 mmol/l, 210 min",0.225
same,Optical density (690 nm),"[1]; 0.052 mmol/l, 240 min",0.408
same,Inhibitory effect on the growth of E. coli (in words),[1]; 0.105 mmol/l,no retarded growth; also recorded: does not inhibit E. coli growth
same,Optical density (690 nm),"[1]; 0.105 mmol/l, 0 min",0.000
same,Optical density (690 nm),"[1]; 0.105 mmol/l, 30 min",0.000
same,Optical density (690 nm),"[1]; 0.105 mmol/l, 60 min",0.002
same,Optical density (690 nm),"[1]; 0.105 mmol/l, 90 min",0.008
same,Optical density (690 nm),"[1]; 0.105 mmol/l, 120 min",0.026
same,Optical density (690 nm),"[1]; 0.105 mmol/l, 150 min",0.068
same,Optical density (690 nm),"[1]; 0.105 mmol/l, 180 min",0.164
same,Optical density (690 nm),"[1]; 0.105 mmol/l, 210 min",0.227
same,Optical density (690 nm),"[1]; 0.105 mmol/l, 240 min",0.416
same,Optical density (690 nm),"[1]; 0.157 mmol/l, 0 min",0.000
same,Optical density (690 nm),"[1]; 0.157 mmol/l, 30 min",−0.001
same,Optical density (690 nm),"[1]; 0.157 mmol/l, 60 min",0.002
same,Optical density (690 nm),"[1]; 0.157 mmol/l, 90 min",0.009
same,Optical density (690 nm),"[1]; 0.157 mmol/l, 120 min",0.027
same,Optical density (690 nm),"[1]; 0.157 mmol/l, 150 min",0.073
same,Optical density (690 nm),"[1]; 0.157 mmol/l, 180 min",0.151
same,Optical density (690 nm),"[1]; 0.157 mmol/l, 210 min",0205
same,Optical density (690 nm),"[1]; 0.157 mmol/l, 240 min",0.372
same,Optical density (690 nm),"[1]; 0.210 mmol/l, 0 min",0.000
same,Optical density (690 nm),"[1]; 0.210 mmol/l, 30 min",0.000
same,Optical density (690 nm),"[1]; 0.210 mmol/l, 60 min",0.003
same,Optical density (690 nm),"[1]; 0.210 mmol/l, 90 min",0.010
same,Optical density (690 nm),"[1]; 0.210 mmol/l, 120 min",0.027
same,Optical density (690 nm),"[1]; 0.210 mmol/l, 150 min",0.072
same,Optical density (690 nm),"[1]; 0.210 mmol/l, 180 min",0.138
same,Optical density (690 nm),"[1]; 0.210 mmol/l, 210 min",0.187
same,Optical density (690 nm),"[1]; 0.210 mmol/l, 240 min",0.346
same,Optical density (690 nm),"[1]; 0.262 mmol/l, 0 min",0.000
same,Optical density (690 nm),"[1]; 0.262 mmol/l, 30 min",0.000
same,Optical density (690 nm),"[1]; 0.262 mmol/l, 60 min",0.002
same,Optical density (690 nm),"[1]; 0.262 mmol/l, 90 min",0.009
same,Optical density (690 nm),"[1]; 0.262 mmol/l, 120 min",0.027
same,Optical density (690 nm),"[1]; 0.262 mmol/l, 150 min",0.069
same,Optical density (690 nm),"[1]; 0.262 mmol/l, 180 min",0.144
same,Optical density (690 nm),"[1]; 0.262 mmol/l, 240 min",0.346
same,Effect of the concentration on E. coli growth (in words),[1]; concentrations from 0 to 0.262 mmol/l,no significant effect
same,Fluorescence reading,[2]; dilution 10^−3,19231
same,Fluorescence reading,[2]; dilution 10^−4,17403
same,Fluorescence reading,[2]; dilution 10^−5,12614
same,Fluorescence reading,[2]; dilution 10^−6,9727
same,Fluorescence reading,[2]; dilution 10^−7,4236
same,Fluorescence reading,[2]; dilution 10^−8,1981
same,Fluorescence reading,[2]; dilution 10^−9,1938
same,Fluorescence reading,[2]; dilution 10^−10,2005
same,Fluorescence reading,[2]; dilution 10^−11,1947
same,Fluorescence reading,[2]; dilution 10^−12,1904
same,Fluorescence reading,[2]; dilution 10^−13,1938
same,Fluorescence reading,[3]; dilution 10^−3,51755
same,Fluorescence reading,[3]; dilution 10^−4,50254
same,Fluorescence reading,[3]; dilution 10^−5,50166
same,Fluorescence reading,[3]; dilution 10^−6,50278
same,Fluorescence reading,[3]; dilution 10^−7,49882
same,Fluorescence reading,[3]; dilution 10^−8,47370
same,Fluorescence reading,[3]; dilution 10^−9,1816
same,Fluorescence reading,[3]; dilution 10^−10,1990
same,Fluorescence reading,[3]; dilution 10^−11,1960
same,Fluorescence reading,[3]; dilution 10^−12,1956
same,Fluorescence reading,[3]; dilution 10^−13,1911
same,Correlation of fluorescence readings with microbial growth (in words),"[4]; 24 hours, Trypticase Soy broth",correlate closely with microbial growth patterns for all the species tested
same,Sensitivity of the assay (in words),[4]; limiting dilution,capable of detecting a single viable cell
